Reference: patent US6579853B2, “Brain cell or nerve cell-protective agents comprising ginsenoside Rb1” (Japan Science and Technology Corporation, priority 1998, dated 2003)

Legend:
cultured nerve cells = conditions: cited from earlier work
[1] = intracerebroventricular administration; cited from earlier work
[2] = system: gerbils loaded with 3 minute forebrain ischemia; test: TUNEL staining of hippocampal CA1 field after 3 minute forebrain ischemia, intracerebroventricular administration; assay type: in vivo, gerbil; conditions: i.c.v. 2.5 or 25 ng single, then 60 or 600 ng/day for 1 week; 1 week after ischemia
Description: In order to analyze a suppressive effect of ginsenoside Rb1 on intracerebral apoptosis-like neuron death, the present inventors examined whether actually occurring pathological apoptosis-like neuron death in the mature brain can be reduced by administration of ginsenoside Rb1 or not. The three minute forebrain ischemia model of gerbils was used as model animal. It was reported that at one week after 3 minute ischemia, about one half of hippocampal CA1 pyramidal neurons degenerated (Sakanaka M., et al., Proc. Natl. Acad. Sci. USA, 95, 4635-4640, 1998). […] With this model animal, it was examined with TUNEL staining whether apoptosis-like neuron death on the 7th day after 3 minute ischemia could be suppressed by intracerebroventricular administration of ginsenoside Rb1 or not.
Immediately after 3 minute forebrain ischemia in gerbils under inhalation anesthesia, a single intracerebroventricular administration of ginsenoside Rb1 at the dose of 2.5 ng or 25 ng was performed, and subsequently ginsenoside Rb1 (60 ng/day or 600 ng/day) was continuously infused into the cerebral ventricles through an osmotic minipump for 1 week. At one week after 3 minute forebrain ischemia, the gerbils were perfused and fixed transcardially with phosphate buffer containing 4% paraformaldehyde under pentobarbital anesthesia and the brain was dissected out. […]

[3] = in vivo; cited from earlier work
nerve cells = conditions: cited from earlier work
[4] = in vivo
[5] = system: SH-SP rats with permanent occlusion of the MCA; conditions: cited from earlier work
Bcl-xL mRNA = Bcl-xL mRNA expression in cultured nerve cells (RT-PCR); assay type: cell-based, rat; conditions: 1 fg/ml or 100 fg/ml, 24 hours; compared with control (0 fg/ml)
Description: It was investigated whether ginsenoside Rb1 of the present invention can increase the expression of Bcl-xL gene or not. Experimental techniques followed those by Wen et al. (Wen T. -C., et al., J. Exp. Med., 188, 635-649, 1998). Total RNA was extracted from cultured nerve cells treated for 24 hours with ginsenoside Rb1 at the concentrations of 0 fg/ml, 1 fg/ml and 100 fg/ml. cDNA was prepared from DNase-treated total RNA (3 μg) by using oligo dT primer and reverse transcriptase (Moloney murine leukemia virus reverse transcriptase). Gene amplification reaction (polymerase chain reaction, PCR) was performed by using Taq polymerase under the following conditions: (1) 94° C., 2 minutes; (2) 94° C., 1.5 minute; 55° C., 1.5 minute; 72° C., 2 minutes constructed one cycle, and 25 cycles for Bcl-xL and 20 cycles for β-actin were performed; and (3) 72° C., 2 minutes.
PCR products were electrophoresed on 3% agarose gel and visualized by ethidium bromide staining. The expression of β-actin mRNA was used as an internal standard. […]

[6] = system: transient forebrain ischemia model of gerbils; conditions: cited from earlier work
neuronal cells = conditions: 0.11-11 μg/ml; cited from earlier work
[7] = i.c.v. infusion starting immediately after permanent MCA occlusion

## CC(C)=CCC[C@](C)(O[C@@H]1O[C@H](CO[C@@H]2O[C@H](CO)[C@@H](O)[C@H](O)[C@H]2O)[C@@H](O)[C@H](O)[C@H]1O)[C@H]1CC[C@]2(C)[C@@H]1[C@H](O)C[C@@H]1[C@@]3(C)CC[C@H](O[C@@H]4O[C@H](CO)[C@@H](O)[C@H](O)[C@H]4O[C@@H]4O[C@H](CO)[C@@H](O)[C@H](O)[C@H]4O)C(C)(C)[C@@H]3CC[C@]12C [ginsenoside Rb1]
Cultured nerve cells; 0.1-100 fg/ml
  neurotoxicity of free radicals: reduce the neurotoxicity
Cultured nerve cells; 1-100 fg/ml previously admixed in culture medium
  neuronal necrosis caused by ferrous sulfate: reduces neuronal necrosis
[1]
  brain temperature, cerebral blood flow and blood pressure: no effects
[2]
  TUNEL-positive nerve cells in hippocampal CA1 field: significantly reduced in a dose-dependent manner
[3]
  detection in blood after oral administration: can not be detected
Nerve cells
  neurotoxicity at high concentrations: increased neurotoxicity
[4]
  adverse effect on administered animals: No adverse effect
[5]; continuous i.c.v. infusion 0.6 μg/day after MCA occlusion
  suppressive effect on cerebral infarction: significant suppressive effect
[5]; continuous i.c.v. infusion 6 μg/day or 0.06 μg/day after MCA occlusion
  curative effect on cerebral infarction: no curative effect
[5]; [7]
  infarcted area in the cerebral cortex: significant reduction
  ischemia-induced place navigation disability: ameliorated
Bcl-xL mRNA
  expression of Bcl-xL mRNA: increased
[6]; i.p. 10 or 20 mg/kg once a day for one week in advance
  delayed neuronal death and learning disability caused by 5 minute occlusion: significantly prevent
[6]; i.p. 10 or 20 mg/kg/day before ischemic loading
  hippocampal CA1 pyramidal neurons rescued: about 30%
[6]; i.p. immediately after 3- or 5-minute occlusion of the common carotid arteries
  effect of intraperitoneal administration after ischemia: no effect
Neuronal cells
  glutamate-mediated neurotoxicity: reduce glutamate-mediated neurotoxicity
